Experimental data reported in patent publication US11053204B2, “Pyrimidinyloxy benzene derivatives as herbicides” (FMC Corporation, priority 2015, dated 2021).

Key:
Type in all cases: in vivo
[1] = test system: Italian ryegrass (Lolium multiflorum); assay: Test A preemergence, visual injury rating
In short: (§1)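 Injury scores run from 0, no effect, to 100, complete control, judged by eye against untreated plants roughly 10 days after treatment. Chemicals carried a surfactant in a non-phytotoxic solvent and went onto loam–sand soil preemergence or onto one- to two-leaf seedlings postemergence.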

[2] = test system: barnyardgrass (Echinochloa crus-galli); assay: Test A preemergence, visual injury rating
In short: as §1

[3] = test system: giant foxtail (Setaria faberii); assay: Test A preemergence, visual injury rating
In short: as §1

kochia (Kochia scoparia) [4] = assay: Test A preemergence, visual injury rating
In short: as §1

[5] = test system: ragweed (common ragweed, Ambrosia elatior); assay: Test A preemergence, visual injury rating
In short: as §1

[6] = test system: Italian ryegrass (Lolium multiflorum); assay: Test A postemergence, visual injury rating
In short: as §1

[7] = test system: barnyardgrass (Echinochloa crus-galli); assay: Test A postemergence, visual injury rating; details: 0 to 100 scale, 0 is no effect, 100 is complete control, approximately 10 days
In short: as §1

[8] = test system: blackgrass (Alopecurus myosuroides); assay: Test A postemergence, visual injury rating
In short: as §1

corn (Zea mays) = assay: Test A postemergence, visual injury rating
In short: as §1

[9] = test system: galium (catchweed bedstraw, Galium aparine); assay: Test A postemergence, visual injury rating
In short: as §1

[10] = test system: giant foxtail (Setaria faberii); assay: Test A postemergence, visual injury rating
In short: as §1

kochia (Kochia scoparia) [11] = assay: Test A postemergence, visual injury rating
In short: as §1

[12] = test system: pigweed (Amaranthus retroflexus); assay: Test A postemergence, visual injury rating
In short: as §1

[13] = test system: ragweed (common ragweed, Ambrosia elatior); assay: Test A postemergence, visual injury rating
In short: as §1

[14] = test system: wheat (Triticum aestivum); assay: Test A postemergence, visual injury rating
In short: as §1

[15] = test system: barnyardgrass (Echinochloa crus-galli); assay: Test B flooded paddy test, plant response rating; details: 250 g ai/ha; Flood; scale of 0 to 100 where 0 is no effect and 100 is complete control; 13 to 15 days
In short: (§2)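 Greenhouse pots flooded to 3 cm above soil at time of treatment received compound via the water, which stayed at that level.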

[16] = test system: ducksalad (Heteranthera limosa); assay: Test B flooded paddy test, plant response rating; details: 250 g ai/ha; Flood; scale of 0 to 100 where 0 is no effect and 100 is complete control; 13 to 15 days
In short: as §2

rice (Oryza sativa) = assay: Test B flooded paddy test, plant response rating; details: 250 g ai/ha; Flood; scale of 0 to 100 where 0 is no effect and 100 is complete control; 13 to 15 days
In short: as §2

[17] = test system: sedge, umbrella (small-flower umbrella sedge, Cyperus difformis); assay: Test B flooded paddy test, plant response rating; details: 250 g ai/ha; Flood; scale of 0 to 100 where 0 is no effect and 100 is complete control; 13 to 15 days
In short: as §2

[18] = test system: ragweed (common ragweed, Ambrosia elatior); assay: Test C preemergence, plant response rating; details: Preemergence
In short: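 Greenhouse plants rated visually against untreated controls 13–15 d after treatment, scale 0 = no effect to 100 = complete control. Postemergence sprays went onto potted plants 2–18 cm tall (1–4 leaves); preemergence sprays onto soil freshly sown in loam–sand or silt loam, chemicals formulated in non-phytotoxic solvent with surfactant.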

[19] = 31 g ai/ha, 0 to 100 scale, 0 no effect, 100 complete control
[20] = 125 g ai/ha, 0 to 100 scale (0 no effect, 100 complete control)
[21] = 31 g ai/ha, 0 to 100 scale (0 no effect, 100 complete control)
[22] = 125 g ai/ha, 0 to 100 scale, 0 is no effect, 100 is complete control, approximately 10 days

O=C(CCCC(F)(F)F)c1c(Cl)cccc1Oc1ncc(Cl)cn1 [Compound 143]
Plant response rating, Ryegrass, Italian [1, 19]: 20 | Plant response rating, Ryegrass, Italian [1, 20]: 70 | Plant response rating, Barnyardgrass [2, 19]: 20 | Plant response rating, Barnyardgrass [2, 20]: 100 | Plant response rating, Foxtail, Giant [3, 19]: 100 | Plant response rating, Foxtail, Giant [3, 20]: 100 | Plant response rating, Kochia (kochia (Kochia scoparia) [4]; [19]): 100 | Plant response rating, Kochia (kochia (Kochia scoparia) [4]; [20]): 100 | Plant response rating, Ragweed [5, 19]: 0 | Plant response rating, Ragweed [5, 20]: 0 | Ryegrass, Italian plant response rating [6, 21]: 20 | Ryegrass, Italian plant response rating [6, 22]: 80 | Barnyardgrass plant response rating ([7]; 31 g ai/ha): 20 | Barnyardgrass plant response rating ([7]; 125 g ai/ha): 70 | Blackgrass plant response rating [8, 21]: 30 | Blackgrass plant response rating [8, 22]: 80 | Corn plant response rating (corn (Zea mays); [21]): 10 | Corn plant response rating (corn (Zea mays); [22]): 30 | Galium plant response rating [9, 21]: 90 | Galium plant response rating [9, 22]: 100 | Foxtail, Giant plant response rating [10, 21]: 30 | Foxtail, Giant plant response rating [10, 22]: 70 | Kochia plant response rating (kochia (Kochia scoparia) [11]; [21]): 90 | Kochia plant response rating (kochia (Kochia scoparia) [11]; [22]): 100 | Pigweed plant response rating [12, 21]: 100 | Pigweed plant response rating [12, 22]: 100 | Ragweed plant response rating [13, 21]: 20 | Ragweed plant response rating [13, 22]: 50 | Wheat plant response rating [14, 21]: 10 | Wheat plant response rating [14, 22]: 20 | Plant response rating, Barnyardgrass [15]: 50 | Plant response rating, Ducksalad [16]: 90 | Plant response rating, Rice (rice (Oryza sativa)): 40 | Plant response rating, Sedge, Umbrella [17]: 90 | Plant response rating, Ragweed ([18]; 125 g ai/ha, scale of 0 to 100): 5 | Plant response rating, Ragweed ([18]; 31 g ai/ha, scale 0 to 100): 0 | Plant response rating, Ragweed ([18]; 62 g ai/ha, scale 0 to 100): 0
